Laboratory results from patent EP2305680A2, “Novel salts of (1S,4R)-cis-4-[2-amino-6-(cyclopropylamino)-9H-purin-9-yl]-2-cyclopentene-1-methanol” (AUROBINDO PHARMA LIMITED, priority 2009, dated 2011).
In brackets after ≈: the same amount, converted by molar mass. Read-outs that look alike come from different tables or passages of the source.

Test: saturation solubility in various solvent systems
Format: physicochemical
Protocol: Solubility is the property of a solid, liquid, or gaseous chemical substance called solute to dissolve in a liquid solvent to form a homogeneous solution of the solute in the solvent. […] The saturation solubility of the compounds according to the present invention is measured in various solvent systems including simulated gastric fluid, pH 4.5 buffer, pH 6.8 buffer solution and pH 7.2 buffer solution. The compounds according to the present invention show better solubility as compared to abacavir sulphate in all solvent systems. Table- 1: Comparison of saturation solubility of Abacavir malonate with Abacavir sulphate (marketed salt)

[1] = solvent: pH 4.5 Sodium acetate buffer
[2] = solvent: pH 6.8 Phosphate buffer
[3] = solvent: pH 7.2 Phosphate buffer

| Solubility (0.01n hcl, solvent: O.O1N HC1, read-out: Solubility) | Solubility (0.1n hcl, simulated gastric fluid, thermodynamic from solid, solvent: O.1N HC1, read-out: Solubility) | Solubility (solvent: Water) | Solubility [1] | Solubility [2] | Solubility [3] | Solubility (0.1 N HCl, simulated gastric fluid, thermodynamic from solid, solvent: O.1N HC1, read-out: Solubility) | Solubility (water, thermodynamic from solid, solvent: Water, read-out: Solubility) | SMILES |
| --- | --- | --- | --- | --- | --- | --- | --- | --- |
| 733 mg/mL (≈ 2560 mM) | 368 mg/mL (≈ 1290 mM) | 116.2 mg/mL (≈ 406 mM) | 403.6 mg/mL (≈ 1410 mM) | 425.2 mg/mL (≈ 1480 mM) | 453.5 mg/mL (≈ 1580 mM) |  |  | Nc1nc(NC2CC2)c2ncn([C@H]3C=C[C@@H](CO)C3)c2n1 [Abacavir Malonate, (1S,4R)-4-[2-AMINO-(6-CYCLOPROPYLAMINO)-9H-PURIN-9-YL]-2-CYCLOPENTENE-1-METHANOL MALONATE] |
|  |  |  | 112.6 mg/mL | 89.5 mg/mL | 124.0 mg/mL | 93.1 mg/mL | 89.2 mg/mL | Nc1nc(NC2CC2)c2ncn([C@H]3C=C[C@@H](CO)C3)c2n1 [Abacavir Sulphate, reference compound] |
